The results in this text go back to ChEMBL document CHEMBL2311263, “Dibenzosuberones as p38 mitogen-activated protein kinase inhibitors with low ATP competitiveness and outstanding whole blood activity” (J Med Chem, 2013).

Broadly, the IC50 is the concentration needed to halve the response being measured.

Experiment [1] deals with T1, Mitogen-activated protein kinase 14 (Homo sapiens, UniProt Q16539). The experiment is described as follows: Inhibition of p38alpha MAP kinase in whole blood (unknown origin) assessed as lipopolysaccharide-stimulated TNF-alpha release by ELISA. (In general: An ELISA detects its analyte on a solid surface through an enzyme-linked reagent.)
Experiment [2] has as its target T1, Mitogen-activated protein kinase 14. Kind of experiment: Inhibition of p38alpha MAP kinase (unknown origin) by ELISA.
For experiment [3] the target is unchanged. Kind of experiment: Inhibition of p38alpha MAP kinase in whole blood (unknown origin) assessed as lipopolysaccharide-stimulated TNF-alpha release measuring residual activity at 10 uM by ELISA.
The target in experiment [4] is Mitogen-activated protein kinase 11 (Homo sapiens) (UniProt Q15759). Kind of experiment: Inhibition of p38beta MAP kinase (unknown origin).
Experiment [5] concerns the target Casein kinase I isoform epsilon (Homo sapiens) (UniProt P49674). Kind of experiment: Inhibition of CSNK1E (unknown origin).
For experiment [6], the target named is T1, Mitogen-activated protein kinase 14. The following applies: Blood, 1 uM.

Active and inactive are the calls of the source. The rule behind the calls is not given here.

T1 sequence (Q16539 whole entry): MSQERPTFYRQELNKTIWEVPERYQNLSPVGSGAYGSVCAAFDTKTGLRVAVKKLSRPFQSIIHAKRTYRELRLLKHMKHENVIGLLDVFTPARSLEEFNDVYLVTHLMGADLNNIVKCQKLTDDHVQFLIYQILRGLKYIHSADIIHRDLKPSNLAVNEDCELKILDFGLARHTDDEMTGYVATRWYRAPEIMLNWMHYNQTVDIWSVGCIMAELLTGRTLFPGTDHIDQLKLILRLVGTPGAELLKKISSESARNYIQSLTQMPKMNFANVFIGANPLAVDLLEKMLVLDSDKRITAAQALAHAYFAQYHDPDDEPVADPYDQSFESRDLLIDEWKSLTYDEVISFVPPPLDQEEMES
Mitogen-activated protein kinase 11 (Homo sapiens), sequence (Q15759 whole entry, canonical isoform): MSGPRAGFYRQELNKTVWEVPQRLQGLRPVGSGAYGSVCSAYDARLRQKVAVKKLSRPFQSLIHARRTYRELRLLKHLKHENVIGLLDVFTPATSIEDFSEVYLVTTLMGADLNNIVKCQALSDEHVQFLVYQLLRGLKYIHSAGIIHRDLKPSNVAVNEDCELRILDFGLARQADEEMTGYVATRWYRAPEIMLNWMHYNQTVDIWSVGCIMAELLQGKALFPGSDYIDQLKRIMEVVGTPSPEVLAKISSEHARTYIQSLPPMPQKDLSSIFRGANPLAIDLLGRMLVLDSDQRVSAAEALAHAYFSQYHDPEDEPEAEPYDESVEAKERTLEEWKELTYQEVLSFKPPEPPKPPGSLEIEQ
Casein kinase I isoform epsilon (Homo sapiens), sequence (P49674 whole entry, looked up, canonical isoform): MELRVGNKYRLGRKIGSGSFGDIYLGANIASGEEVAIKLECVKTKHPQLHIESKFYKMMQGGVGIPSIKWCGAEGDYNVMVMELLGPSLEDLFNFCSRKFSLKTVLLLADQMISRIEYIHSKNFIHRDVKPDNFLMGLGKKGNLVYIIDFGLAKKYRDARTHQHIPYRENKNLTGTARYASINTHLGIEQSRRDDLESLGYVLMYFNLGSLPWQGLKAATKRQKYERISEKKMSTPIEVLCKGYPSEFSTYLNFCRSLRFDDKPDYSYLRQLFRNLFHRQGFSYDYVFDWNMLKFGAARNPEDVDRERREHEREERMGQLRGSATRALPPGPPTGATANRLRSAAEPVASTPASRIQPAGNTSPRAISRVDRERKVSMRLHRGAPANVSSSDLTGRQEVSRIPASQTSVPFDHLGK

In the case of `O=C(NCCN1CCOCC1)c1ccc2c(c1)C(=O)c1ccc(Nc3ccc(F)cc3F)cc1CC2`, the IC50 in experiment [1] was 0.029 µM; in experiment [2], 0.003 µM.

As to `O=C1c2ccc(Nc3cc(NC(=O)C4CCOC4)c(F)cc3F)cc2CCc2ccc(OCCN3CCOCC3)cc21` (configuration not stated), the results for the IC50 in experiment [1] and in experiment [2] were 0.15 µM and 0.012 µM, respectively.

Regarding `O=C(Nc1cc(Nc2ccc3c(c2)CCc2ccccc2C3=O)c(F)cc1F)c1ccccc1`, the IC50 in experiment [1] was 0.29 µM; in experiment [2], 0.004 µM.

On to `C[C@@H](NC(=O)c1ccc2c(c1)C(=O)c1ccc(Nc3ccc(F)cc3F)cc1CC2)C1CCCCC1`, for which the IC50 is 7.6 µM in experiment [1] and 0.089 µM in experiment [2].

In the case of `O=C(O)c1ccc2c(c1)C(=O)c1ccc(Nc3ccc(F)cc3F)cc1CC2`, the values for the IC50 in experiment [1] and in experiment [2] were 0.49 µM and 0.011 µM, respectively.

For the molecule `O=C1c2ccc(Nc3ccc(F)cc3F)cc2CCc2ccc(C(=O)N3CCOCC3)cc21`, the IC50 in experiment [2] is 0.044 µM. The Activity in experiment [3] stood at 39%.

For `CNC(=O)CC[C@H](NC(=O)c1ccc2c(c1)C(=O)c1ccc(Nc3ccc(F)cc3F)cc1CC2)C(=O)NC`, the half-maximal inhibitory concentration (IC50) is 0.064 µM in experiment [1] and 0.014 µM in experiment [2].

Take `O=C(Nc1cc(Nc2ccc3c(c2)CCc2ccc(OCCN4CCOCC4)cc2C3=O)ccc1F)c1ccccc1`: the results for the IC50 in experiment [1] and in experiment [2] were 0.26 µM and 0.001 µM, respectively.

As for `CCOC(=O)c1ccc2c(c1)C(=O)c1ccc(Nc3ccc(F)cc3F)cc1CC2`, the IC50 in experiment [1] came out at 0.27 µM; in experiment [2], 0.003 µM.

In the case of `Cc1cc(F)c(NC(=O)C2CCOC2)cc1Nc1ccc2c(c1)CCc1ccc(OCCN3CCOCC3)cc1C2=O` (configuration not stated), the IC50 in experiment [1] came to 0.57 µM; in experiment [2], 0.098 µM.

`COC(=O)c1ccc2c(c1)C(=O)c1ccc(Nc3ccc(F)cc3F)cc1CC2`: the IC50 in experiment [1] stood at 0.16 µM; in experiment [2], 0.002 µM.

Take `CC(=O)Oc1ccc2c(c1)C(=O)c1ccc(Nc3ccc(F)cc3F)cc1CC2`: the results for the IC50 in experiment [1] and in experiment [2] were 2.3 µM and 0.029 µM, respectively.

Turning to `O=C(OCCO)c1ccc2c(c1)C(=O)c1ccc(Nc3ccc(F)cc3F)cc1CC2`, the IC50 in experiment [1] is 0.21 µM; in experiment [2] it was 0.002 µM.

As to `O=C(NCC(O)CO)c1ccc2c(c1)C(=O)c1ccc(Nc3ccc(F)cc3F)cc1CC2` (configuration not stated), the inhibition entry in experiment [4] is “Active”. The IC50 in experiment [1] turned out to be 0.029 µM; in experiment [2] it was 0.002 µM.

As for `CN1CCN(CCCNC(=O)c2ccc3c(c2)C(=O)c2ccc(Nc4ccc(F)cc4F)cc2CC3)CC1`, the IC50 stood at 0.019 µM in experiment [1] and 0.01 µM in experiment [2].

As to `CSCCNC(=O)c1ccc2c(c1)C(=O)c1ccc(Nc3ccc(F)cc3F)cc1CC2`, the IC50 worked out at 0.036 µM in experiment [1] and 0.002 µM in experiment [2].

On to `O=C1c2ccc(Nc3ccc(F)c(NC(=O)C4CCOC4)c3)cc2CCc2ccc(OCCO)cc21` (configuration not stated), for which the results for the IC50 in experiment [1] and in experiment [2] were 1.5 µM and 0.02 µM, respectively.

Take `O=C(NCCO)c1ccc2c(c1)C(=O)c1ccc(Nc3ccc(F)cc3F)cc1CC2`: the IC50 in experiment [1] is 0.027 µM; in experiment [2], 0.005 µM.

Take `CN1CCN(CCNC(=O)c2ccc3c(c2)C(=O)c2ccc(Nc4ccc(F)cc4F)cc2CC3)CC1`: the IC50 in experiment [1] is 0.027 µM; in experiment [2], 0.01 µM.

On to `O=C(NCCN1CCOCC1)c1ccc2c(c1)C(=O)c1ccc(Nc3ccc(F)c(NC(=O)c4ccccc4)c3)cc1CC2`, for which the inhibition result in experiment [4] and in experiment [5] was “Active” throughout.

As for `COC(=O)CC[C@H](NC(=O)c1ccc2c(c1)C(=O)c1ccc(Nc3ccc(F)cc3F)cc1CC2)C(=O)OC`, the figures for the half-maximal inhibitory concentration (IC50) in experiment [1] and in experiment [2] were 0.018 µM and 0.005 µM, respectively.

`CCCOC(=O)c1ccc2c(c1)C(=O)c1ccc(Nc3ccc(F)cc3F)cc1CC2`: the IC50 in experiment [1] turned out to be 0.22 µM; in experiment [2], 0.008 µM.

Turning to `CCOC(=O)CNC(=O)c1ccc2c(c1)C(=O)c1ccc(Nc3ccc(F)cc3F)cc1CC2`, the half-inhibitory concentration (IC50) in experiment [1] is 0.095 µM; in experiment [2], 0.006 µM.

Take `O=C(Nc1cc(Nc2ccc3c(c2)CCc2ccc(OCCN4CCOCC4)cc2C3=O)ccc1F)c1cccs1`: the IC50 in experiment [1] turned out to be 0.095 µM; in experiment [2], 0.0007 µM.

On to `O=C(Nc1cc(Nc2ccc3c(c2)CCc2ccc(OCCN4CCOCC4)cc2C3=O)ccc1F)c1ccoc1`, for which the results for the concentration for half-maximal inhibition (IC50) in experiment [1] and in experiment [2] were 0.11 µM and 0.001 µM, respectively.

Regarding `CS(=O)(=O)CCNC(=O)c1ccc2c(c1)C(=O)c1ccc(Nc3ccc(F)cc3F)cc1CC2`, the IC50 was 0.05 µM in experiment [1] and 0.003 µM in experiment [2].

As to `O=C(Nc1cc(Nc2ccc3c(c2)CCc2ccc(OCCN4CCOCC4)cc2C3=O)c(F)cc1F)c1ccsc1`, the IC50 in experiment [1] turned out to be 0.012 µM.

Take `Cc1cc(F)c(NC(=O)c2ccoc2)cc1Nc1ccc2c(c1)CCc1ccc(OCCN3CCOCC3)cc1C2=O`: the IC50 in experiment [1] came out at 0.032 µM; in experiment [2], 0.001 µM.

On to `COC(=O)[C@H](CC(C)C)NC(=O)c1ccc2c(c1)C(=O)c1ccc(Nc3ccc(F)cc3F)cc1CC2`, for which the values for the IC50 in experiment [1] and in experiment [2] were 0.46 µM and 0.007 µM, respectively.

As to `COc1ccc2c(c1)C(=O)c1ccc(Nc3ccc(F)c(NC(=O)c4ccccc4)c3)cc1CC2`, the IC50 in experiment [1] was 4.1 µM; in experiment [2] it was 0.021 µM.

Consider `CC(C)C[C@H](NC(=O)c1ccc2c(c1)C(=O)c1ccc(Nc3ccc(F)cc3F)cc1CC2)C(=O)O`, for which the inhibition entry in experiment [6] is “inactive”. In experiment [2], this molecule had an IC50 of 0.094 µM.

Take `O=C(NCCF)c1ccc2c(c1)C(=O)c1ccc(Nc3ccc(F)cc3F)cc1CC2`: the 50% inhibitory concentration (IC50) is 0.083 µM in experiment [1] and 0.002 µM in experiment [2].

For `O=C(NC(CO)CO)c1ccc2c(c1)C(=O)c1ccc(Nc3ccc(F)cc3F)cc1CC2`, the values for the IC50 in experiment [1] and in experiment [2] were 0.017 µM and 0.009 µM, respectively.

`O=C(Nc1ccc(F)c(Nc2ccc3c(c2)CCc2ccc(OCCO)cc2C3=O)c1)c1ccccc1`: the IC50 in experiment [1] was determined as 9 µM; in experiment [2] it was 0.002 µM.

For the molecule `CC1(C)OC[C@H](COc2ccc3c(c2)C(=O)c2ccc(Nc4ccc(F)c(NC(=O)c5cccs5)c4)cc2CC3)O1`, the IC50 in experiment [1] turned out to be 0.3 µM; in experiment [2], 0.002 µM.

On to `O=C(Nc1cc(Nc2ccc3c(c2)CCc2ccc(OCCN4CCOCC4)cc2C3=O)ccc1F)c1ccsc1`, for which the 50% inhibitory concentration (IC50) was 0.026 µM in experiment [1] and 0.0003 µM in experiment [2].

For the molecule `O=C(NCCCl)c1ccc2c(c1)C(=O)c1ccc(Nc3ccc(F)cc3F)cc1CC2`, the IC50 in experiment [1] was determined as 0.064 µM; in experiment [2], 0.003 µM.

Regarding `COCCNC(=O)c1ccc2c(c1)C(=O)c1ccc(Nc3ccc(F)cc3F)cc1CC2`, the IC50 in experiment [1] is 0.054 µM; in experiment [2] it was 0.005 µM.

As to `O=C(Nc1cc(Nc2ccc3c(c2)CCc2ccc(OCCN4CCOCC4)cc2C3=O)c(F)cc1F)c1ccccc1`, the IC50 came to 0.22 µM in experiment [1] and 0.001 µM in experiment [2].

Consider `O=C(OCCN1CCOCC1)c1ccc2c(c1)C(=O)c1ccc(Nc3ccc(F)cc3F)cc1CC2`, for which the IC50 was determined as 0.24 µM in experiment [1] and 0.001 µM in experiment [2].

On to `CNC(=O)c1ccc2c(c1)C(=O)c1ccc(Nc3ccc(F)cc3F)cc1CC2`, for which the IC50 in experiment [1] came to 0.037 µM; in experiment [2], 0.003 µM.

`O=C(Nc1cc(Nc2ccc3c(c2)CCc2ccc(OCCO)cc2C3=O)ccc1F)c1ccccc1`: the IC50 in experiment [1] stood at 2.4 µM; in experiment [2], 0.002 µM.

With `O=C(Nc1cc(Nc2ccc3c(c2)CCc2ccc(OC[C@H](O)CO)cc2C3=O)ccc1F)c1cccs1`, the figures for the IC50 in experiment [1] and in experiment [2] were 0.042 µM and 0.007 µM, respectively.

Regarding `CC1(C)OC[C@@H](COc2ccc3c(c2)C(=O)c2ccc(Nc4ccc(F)c(NC(=O)c5ccccc5)c4)cc2CC3)O1`, the figures for the IC50 in experiment [1] and in experiment [2] were 0.45 µM and 0.027 µM, respectively.

As to `CN(C)CCNC(=O)c1ccc2c(c1)C(=O)c1ccc(Nc3ccc(F)cc3F)cc1CC2`, the half-inhibitory concentration (IC50) in experiment [1] came out at 0.018 µM; in experiment [2] it was 0.003 µM.

With `NC(=O)c1ccc2c(c1)C(=O)c1ccc(Nc3ccc(F)cc3F)cc1CC2`, the IC50 was 0.019 µM in experiment [1] and 0.01 µM in experiment [2].
